One series has as its system mice. As to the kind of experiment: Pharmacodynamic profile and general toxicity in mice. The series is classed as in vivo, CD-1 mice. On the procedure:
Male white mice of the CD-1 strain supplied by Charles River Ltd. (U.K.) were used throughout. An acclimatization period of at least three days was allowed between arrival and commencement of a particular experimental series. The animals were fed a complete commercial pelleted rodent diet without restriction during the acclimatization and study periods. Animals had free access to tap water. Body weights during testing were mostly within 20-28 g.
Test materials were prepared as aqueous solutions in physiological saline (0.9% NaCl), up to a maximum concentration of 10 mg./ml. All materials were freshly prepared on the morning prior to each dosing session. Dosages were expressed gravimetrically (mg./kg.), in terms of the materials as received.
Groups of mice (mostly n=5) received either i.v. or oral administration of the test materials at various dose levels. Dose volumes appropriate for respective dose levels selected, were determined for each animal according to body weights on the day of dosing. Any behavioral changes occurring during one to two hours after administration, as well as incidence of death up to 24 hours after dosing were recorded.

Series [1] has as its target T1, M1 muscarinic receptors (3H-PZ sites, frontal cortex) (Rattus norvegicus, UniProt P08482).
T1 sequence (P08482 1-460): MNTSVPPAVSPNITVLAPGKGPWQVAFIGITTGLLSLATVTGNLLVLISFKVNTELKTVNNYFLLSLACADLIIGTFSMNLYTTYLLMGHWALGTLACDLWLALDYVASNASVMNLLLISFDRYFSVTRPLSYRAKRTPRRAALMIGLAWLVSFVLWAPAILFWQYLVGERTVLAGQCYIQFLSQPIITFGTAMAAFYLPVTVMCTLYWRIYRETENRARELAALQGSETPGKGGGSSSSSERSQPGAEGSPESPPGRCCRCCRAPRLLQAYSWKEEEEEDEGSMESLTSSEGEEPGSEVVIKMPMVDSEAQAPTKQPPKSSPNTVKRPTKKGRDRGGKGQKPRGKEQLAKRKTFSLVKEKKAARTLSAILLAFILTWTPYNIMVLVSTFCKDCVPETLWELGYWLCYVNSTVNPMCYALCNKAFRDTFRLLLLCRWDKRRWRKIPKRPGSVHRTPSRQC
Nature of the series: Displacement of 3H-PZ from rat frontal cortex homogenate. It is filed as binding. The note with it: for Ki: (a') frontal cortex, read-out: Ki(3H-PZ); for a':c', Ki(3H-PZ):Ki(3H-CD): (g) frontal cortex ratio.

The subject of series [2] is isolated guinea-pig ileum. Nature of the series: Contraction of isolated guinea-pig ileum preparation. An excerpt:
From this Table, it appears that compounds (III) were not so effective in contracting the guinea pig ileum preparation.

Series [3] has as its target T2, M1 muscarinic receptors (3H-PZ sites, forebrain) (Rattus norvegicus, UniProt P08482).
T2 sequence (P08482 1-460): T1 sequence (P08482 1-460)
Nature of the series: Displacement of 3H-Pirenzepine (3H-PZ, selective M1 antagonist) from rat forebrain homogenate. The note with it: for Ki: (a) forebrain. It is filed as binding. For orientation: Displacement assays read how much labelled ligand stays bound in the presence of the test substance.

For series [4], the system named is muscarinic receptors (3H-QNB sites, cerebellum, mainly M2). Nature of the series: biochemical. It is filed as binding, rat. The note with it: for a:b": (h) Ki(3H-PZ) forebrain : Ki(3H-QNB) cerebellum; for b:b": (j) Ki(3H-QNB) forebrain : Ki(3H-QNB) cerebellum.
Setting [5] is: 10 mg/kg i.v., listed as (-)-III AF122B.
Setting [6] is: 25 mg/kg i.v., listed as (-)-III AF122B.
Where [7] appears, read: 50 mg/kg i.v., listed as (-)-III AF122B.
Where [8] appears, read: 100 mg/kg i.v., immed = immediately.
Setting [9] is: 200 mg/kg p.o., listed as (-)-III AF122B.
The mark [10] stands for this setting: 50 mg/kg i.v., listed as (+)-III AF122A.
[11] abbreviates: 200 mg/kg p.o., listed as (+)-III AF122A.
Where [12] appears, read: 25 mg/kg i.v., listed as (-)-III AF122A.
[13] abbreviates: 50 mg/kg i.v., listed as (-)-III AF122A.
[14] abbreviates: 200 mg/kg p.o., listed as (-)-III AF122A.

These results are taken from US4876260A, “Oxathiolanes” (State of Israel, Israel Institute of Biological Research, priority 1988, dated 1989).

On to `CC1OCC2(CN3CCC2CC3)S1` (single isomer, unassigned) [compound 9, 2-methylspiro(1,3-oxathiolan-4,3')quinuclidine], for which the “Analgesia (nonresponsiveness to tail pinch), No. affected/total treated” value in the series with mice (setting [5]) is 3/5; in the series on mice (25 mg/kg i.v.) it was 5/5; in the series with mice (setting [9]) it was 3/4. The “Mortality, No. dead/total treated” value in the series with mice (setting [5]) is 0/5; in the series on mice (setting [6]), 0/5; in the series with mice (setting [7]), 2/2; in the series on mice (100 mg/kg i.v., listed as (-)-III AF122B), 2/2; in the series on mice (100 mg/kg p.o., listed as (-)-III AF122B) it was 1/5; in the series on mice (setting [9]), 4/4. Besides, the “Vocalization, No. affected/total treated” value with mice (25 mg/kg i.v.) is on record as 1/5; in the series on mice (setting [9]), 2/4. The Altered motor activity entry in the series on mice (setting [6]) and in the series on mice (50 mg/kg p.o.) was “a+h” each time. The “Convulsive seizures, No. affected/total treated” value is listed as 3/5 with mice (setting [6]), 2/2 in the series on mice (setting [7]), 2/5 in the series on mice (100 mg/kg p.o.) and 4/4 with mice (setting [9]). Moreover, the “Respiratory distress, No. affected/total treated” value is listed as 2/5 in the series with mice (setting [6]), 1/5 in the series with mice (100 mg/kg p.o.) and 3/5 in the series on mice (setting [9]). The “Tremors, No. affected/total treated” value was 3/5 with mice (setting [6]) and 1/5 in the series on mice (100 mg/kg p.o.). Besides, the “Mortality, time after drug administration” value (“Mortality, time” below) with mice (setting [7]) is 5 s; with mice (setting [8]) it was “immed”; with mice (200 mg/kg p.o., m = minutes, listed as (-)-III AF122B), 20 m. Further, the Ki in series [1] is 12100 nM. For the same compound, the “Contraction of guinea pig ileum (in words)” value in series [2] (listed as (-)-AF122B) is reported as “inconsistent contractile response: sometimes at high concentrations it induced contractions, whereas at other times it did not”.
As for `CC1OCC2(CN3CCC2CC3)S1` (single isomer, unassigned) [compound 13, 2-methylspiro(1,3-oxathiolan-4,3')quinuclidine], the “Mortality, No. dead/total treated” value is reported as 0/5 in the series on mice (10 mg/kg i.v., listed as (+)-III AF122A); 0/5 in the series on mice (25 mg/kg i.v., listed as (+)-III AF122A); 4/5 with mice (setting [10]); 0/5 in the series with mice (50 mg/kg p.o.); 1/1 in the series on mice (100 mg/kg i.v., listed as (+)-III AF122A); 0/5 in the series on mice (100 mg/kg p.o., listed as (+)-III AF122A). Also, in the series with mice (setting [11]), the “Mortality, No. dead/total treated” value was 0/5. The “Exophthalmus, No. affected/total treated” value with mice (50 mg/kg i.v.) was 3/5. Besides, in the series with mice (setting [10]), the “Convulsive seizures, No. affected/total treated” value is given as 5/5. The “Mortality, time” value is 30 s with mice (setting [10]) and “immed” in the series with mice (setting [8]). For the same compound, in the series with mice (setting [10]), the “Tremors, No. affected/total treated” value was 4/5. Besides, the Altered motor activity result in the series on mice (setting [11]) was “a+h”. Moreover, the Ki in series [1] was determined as 4210 ± 470 nM.
Consider `CC1OCC2(CN3CCC2CC3)S1` (single isomer, unassigned) [compound 12, 2-methylspiro(1,3-oxathiolan-4,3')quinuclidine], for which the “Mortality, No. dead/total treated” value is listed as 0/5 with mice (10 mg/kg i.v., listed as (-)-III AF122A); 1/5 in the series on mice (setting [12]); 1/1 in the series on mice (setting [13]); 1/1 in the series on mice (100 mg/kg i.v., listed as (-)-III AF122A); 0/5 in the series with mice (100 mg/kg p.o., listed as (-)-III AF122A); 1/5 with mice (setting [14]). Also, the “Exophthalmus, No. affected/total treated” value in the series on mice (25 mg/kg i.v.) was 4/5. In addition, the “Convulsive seizures, No. affected/total treated” value is recorded as 1/5 in the series on mice (setting [12]), 1/1 in the series on mice (setting [13]) and 1/5 in the series on mice (setting [14]). For the same compound, the “Mortality, time” value with mice (setting [12]) is on record as 10 s; in the series with mice (setting [13]) it was 10 s; in the series with mice (setting [8]), “immed”; in the series with mice (200 mg/kg p.o., m = minutes, listed as (-)-III AF122A), 10 m. Further, the “Respiratory distress, No. affected/total treated” value in the series on mice (setting [12]) is on record as 4/5; in the series with mice (setting [14]) it was 3/5. Besides, the “Tremors, No. affected/total treated” value in the series with mice (setting [12]) is 4/5; in the series with mice (setting [13]), 1/1; with mice (200 mg/kg p.o.), 3/5. In the series with mice (setting [14]), the “Vocalization, No. affected/total treated” value was 2/5. In addition, the Ki in series [1] stood at 350 ± 40 nM.
On to `C[C@H]1O[C@]2(CS1)CN1CCC2CC1` (single isomer, unassigned) [Compound #5, 2-methylspiro(1,3-oxathiolan-5,3')quinuclidine], for which, in series [1], the Ki was 410 ± 80 nM and the “a':c', Ki(3H-PZ):Ki(3H-CD)” value was determined as 2.1. In addition, in series [3], the “a:b, Ki(3H-PZ):Ki(3H-QNB)” value is reported as 0.3 and the affinity, expressed as Ki, was 1.1 ± 0.3 µM. Moreover, in series [4], the “a:b"” value is listed as 0.14 and the “b:b"” value was 0.47.
Regarding `C[C@H]1O[C@]2(CS1)CN1CCC2CC1` (single isomer, unassigned) [compound 6, 2-methylspiro(1,3-oxathiolan-5,3')quinuclidine], in series [1], the Ki is 4630 ± 420 nM and the “a':c', Ki(3H-PZ):Ki(3H-CD)” value is reported as 0.6. In addition, in series [3], the “a:b, Ki(3H-PZ):Ki(3H-QNB)” value is reported as 0.20 and the Ki came out at 9.6 ± 1.8 µM. In series [4], the “a:b"” value is given as 0.1 and the “b:b"” value is 0.48.
For the compound `C[C@@H]1O[C@]2(CS1)CN1CCC2CC1` (relative stereo) [compound 3, 2-methylspiro(1,3-oxathiolan-5,3')quinuclidine], in series [3], the “a:b, Ki(3H-PZ):Ki(3H-QNB)” value is on record as 0.59 and affinity was put at a Ki of 14.6 ± 2.9 µM. Further, in series [4], the “a:b"” value is on record as 0.52 and the “b:b"” value was 0.88.
On to `C[C@H]1O[C@]2(CS1)CN1CCC2CC1` (relative stereo) [compound 4, 2-methylspiro(1,3-oxathiolan-5,3')quinuclidine], for which, in series [1], the “a':b', Ki(3H-PZ):Ki(3H-QNB)” value is on record as 0.13; the Ki came to 960 ± 50 nM; the “a':c', Ki(3H-PZ):Ki(3H-CD)” value came to 2.5. In series [3], the “a:b, Ki(3H-PZ):Ki(3H-QNB)” value was 0.14 and the Ki is 1 ± 0.4 µM. For the same compound, in series [4], the “a:b"” value came out at 0.07 and the “b:b"” value turned out to be 0.47. For the same compound, the “a':b"” value in series [4] ((i) Ki(3H-PZ) frontal cortex : Ki(3H-QNB) cerebellum) is given as 0.1. Also, in series [4] ((k) Ki(3H-QNB) frontal cortex : Ki(3H-QNB) cerebellum), the “b':b"” value is 0.39. The “Agonist type (remarks)” value in series [2] is “Full agonist”.

In general, Ki refers to the dissociation constant of the complex between target and ligand, obtained from inhibition or displacement.
